From patent US8053461B2, “Oxindole derivative” (Theravalues Corporation, priority 2006, dated 2011) come the findings set out here.

SMILES strings stand for the structures. Counter-ions that a name gives are not always drawn.

In data set [1] the target is T1, recombinant GST-Pim-1 kinase (Homo sapiens, UniProt P11309).
T1 construct: GST
As to the kind of experiment: In vitro system for measurement of Pim-1 kinase activity (phosphorylation of biotinylated p21 peptide, OD450). Type of data set: biochemical. Particulars: ATP 10 μM, 25° C., 30 minutes; read-out: 50% inhibitory concentration (IC50) of Pim-1 kinase activity. On the procedure:
The sensitivity (IC50: inhibitory concentration of 50% of activity) and concentration dependence of these novel compounds to inhibition of Pim-1 activity were studied (using the following system).
In Vitro System for Measurement of Pim-1 Kinase Activity:
(1) Add a biotinylated p21 peptide (1 mM) as a substrate to be phosphorylated by Pim-1 and a recombinant GST-Pim-1 kinase (18 μg/ml) to a kinase buffer.
(2) Add a test compound (dissolved in 2% DMSO) or 2% DMSO (a solvent control) thereto.
(3) Add ATP (10 μM) thereto and incubate the mixture at 25° C. for 30 minutes (initiate a kinase reaction).
(4) Add EDTA (10 mM) thereto to stop the reaction.
(5) Add 10 μl of the kinase reaction mixture to a 96-well plate (which has been blocked in advance) coated with avidin, and incubate the plate at room temperature for 60 minutes.
(6) Wash the wells with a washing buffer three times.
(7) Add a diluted solution (1:500) of an antibody which recognizes phosphorylated p21 (Thr145) to the wells in an amount of 100 μl per well and incubate the plate for 90 minutes.
(8) Wash the wells with a washing buffer three times.
(9) Add a diluted solution (1:2000) of a secondary antibody which […] to the wells in an amount of 100 μl per well and incubate the plate for 60 minutes.
(10) Wash the wells with a washing buffer five times.
(11) Add a substrate (TMB) for peroxidase to the wells and incubate the plate for 8 minutes. Then, stop the reaction with 2 M H2SO4 and perform the colorimetric determination using a microplate reader (OD450).

In data set [2] the test system is prostate cancer cell line (PC-3). As to the kind of experiment: Cytotoxicity, MTS method, time course. Type of data set: cell-based. Particulars: time course observation of viable cell count, FIG. 3. On the procedure:
(§1) Various cancer cell lines were seeded in 96-well plates at a density of 3 to 5000 cells per well, and on the following day, any of the novel compounds was added thereto such that the final concentrations of the compounds were 0 to 100 μM (the concentration of the solvent DMSO was 0.5%) and the plates were incubated for 24 to 72 hours. The cytotoxicity to cancer cells can be examined by calculating the viable cell count by the MTS method (CellTiter 96 Aqueous One Solution Cell Proliferation Assay, Promega) after incubation. Here, the MTS method is a viable cell count calculation method using the fact that a tetrazolium compound (MTS) is converted into a chromogenic formazan product by an oxidoreductase of viable cells. In the measurement method, to each well of a 96-well plate containing 100 μl of a culture medium and sample cells, 20 μl of CellTiter 96 Aqueous One Solution Reagent is added and the plate was incubated in an incubator at 37° C. for 90 to 120 minutes, and then, the absorbance at 490 nm is measured using a 96-well plate reader.
On the technique in general: Tetrazolium dyes change colour on reduction, which living cells bring about.

Data set [3] relates to lung cancer cell line (A549). In words: Cytotoxicity, MTS method. Type of data set: cell-based. As to the method: as §1
Data set [4] concerns oral squamous cell carcinoma cell line (HSC-3). In words: Cytotoxicity, MTS method. It counts as cell-based. Conditions: at 100 μM and 10 μM, even at 1 μM to some cell lines, FIG. 2. On the procedure: as §1
For data set [5], the system named is uterine cancer cell line (HeLa). In words: Cytotoxicity, MTS method. Conditions: at 100 μM and 10 μM, even at 1 μM to some cell lines, FIG. 2. It counts as cell-based. On the procedure:
as §1

The test system of data set [6] is esophageal squamous cell carcinoma cell line (T.Tn). As to the kind of experiment: Cytotoxicity, MTS method. It counts as cell-based. On the procedure:
as §1

Data set [7] relates to normal renal cell line (293). In words: Cytotoxicity, MTS method. Type of data set: cell-based. Particulars: at 100 μM and 10 μM, even at 1 μM to some cell lines, FIG. 2. On the procedure:
as §1

The subject of data set [8] is pancreatic cancer cell line (MiaPaCa-2). In words: Cytotoxicity, MTS method. Type of data set: cell-based. Particulars: at 100 μM and 10 μM, even at 1 μM to some cell lines, FIG. 2. On the procedure: as §1
Data set [9] has as its system pancreatic cancer cell line (BxPC-3). In words: Cytotoxicity, MTS method, time course. It counts as cell-based. Particulars: FIG. 4. On the procedure: as §1

T1 sequence (P11309 whole entry): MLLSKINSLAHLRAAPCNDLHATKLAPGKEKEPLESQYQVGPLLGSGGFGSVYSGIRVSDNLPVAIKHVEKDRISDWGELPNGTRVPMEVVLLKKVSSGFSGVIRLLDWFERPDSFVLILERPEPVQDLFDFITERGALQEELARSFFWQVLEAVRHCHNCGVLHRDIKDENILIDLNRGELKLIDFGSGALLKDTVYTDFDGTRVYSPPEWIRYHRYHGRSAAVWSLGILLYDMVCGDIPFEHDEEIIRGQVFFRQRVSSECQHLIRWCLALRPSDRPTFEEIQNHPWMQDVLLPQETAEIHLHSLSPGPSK

For `O=C1Nc2ccccc2/C1=C\c1ccc(/C=C2/C(=O)Nc3ccccc32)o1` [compound (1), (3E)-3[(5-((E)-(2-oxoindolin-3-ylidene)methyl)furan-2-yl)methylene]indoline-2-one], in [1], the IC50 turned out to be 50 nM. Besides, the cell lethal effect result in data set [2] is “has a cell lethal effect”. Besides, the cytotoxicity entry in data set [3] (A549, at 100 μM and 10 μM, even at 1 μM to some cell lines, FIG. 2) is recorded as “remarkable cytotoxicity”; in data set [4], “remarkable cytotoxicity”; in data set [5] it was “remarkable cytotoxicity”; in data set [6] (T.Tn, at 100 μM and 10 μM, even at 1 μM to some cell lines, FIG. 2), “remarkable cytotoxicity”; in [7], “remarkable cytotoxicity”; in data set [8] it was “remarkable cytotoxicity”.

As to `CC(=O)N1C(=O)/C(=C/c2ccc(/C=C3/C(=O)N(C(C)=O)c4ccccc43)o2)c2ccccc21` [compound (2), (3E)-1-acetyl-3-[((5E)-((1-acetyl-2-oxoindolin-3-ylidene)methyl)furan-2-yl)methylene]indolin-2-one], the IC50 in [1] was 10 nM. Besides, the “cell proliferation inhibitory effect and cell lethal effect” value was “has a cell proliferation inhibitory effect and a cell lethal effect” in [9]; “has a cell proliferation inhibitory effect and a cell lethal effect” in data set [3] (lung cancer cell line (A549), time course, FIG. 4); “has a cell proliferation inhibitory effect and a cell lethal effect” in [6] (esophageal squamous cell carcinoma cell line (T.Tn), time course, FIG. 4).

For the molecule `CC(=O)N1C(=O)/C(=C/c2ccc(/C=C3/C(=O)Nc4ccccc43)o2)c2ccccc21` [compound (3), (3E)-3-((5-((E)-(1-acetyl-2-oxoindolin-3-ylidene)methyl)furan-2-yl)methylene)indolin-2-one], the IC50 in [1] amounted to 800 nM.

For the molecule `CCCC(=O)N1C(=O)/C(=C/c2ccc(/C=C3/C(=O)N(C(=O)CCC)c4ccccc43)o2)c2ccccc21` [compound (7), (3E)-1-butyryl-3-[((5E)-((1-butyryl-2-oxoindolin-3-ylidene)methyl)furan-2-yl)methylene]indolin-2-one], in data set [1], the IC50 is 26 nM.

Turning to `CC(=O)N1C(=O)/C(=C/c2ccc(/C=C3/C(=O)Nc4ccc(C(=O)O)cc43)o2)c2ccccc21` [compound (9), (3E)-3-((5-((E)-(1-acetyl-2-oxoindolin-3-ylidene)methyl)furan-2-yl)methylene)-2-oxoindoline-5-carboxylic acid sodium salt], the IC50 in [1] was found to be 1400 nM.

Take `CC(=O)N1C(=O)/C(=C/c2ccc(/C=C3/C(=O)Nc4cc(C(=O)O)ccc43)o2)c2ccccc21` [compound (10), (3E)-3-((5-((E)-(1-acetyl-2-oxoindolin-3-ylidene)methyl)furan-2-yl)methylene)-2-oxoindoline-6-carboxylic acid sodium salt]: the IC50 in data set [1] was found to be 580 nM.
